Data on twelve compounds can be found in patent EP1295874A2, “Retroviral protease inhibiting compounds” (Abbott Laboratories, priority 1995, dated 1997).

For orientation: EC50 means the concentration needed to bring the measured effect to its halfway point. Read a low EC50 as an effect from little substance. Usually IC50 stands for the concentration needed to halve the response being measured. The term inhibition denotes the drop in the measured response relative to a control, in per cent.

The subject of data set [1] is HIV Selected In Vitro by the Compound of Example 2B. Nature of the data set: microbe, parasite or virus in culture. In kind it is cell-based.
In the next data set the test system is HIVIIIB. Nature of the data set: Antiviral activity (anti-HIV activity) in MT4 cells, MTT readout. The class given is cell-based. The following applies: Human immunodeficiency virus 1, MT4, 120 h, read-out: IC50 (µM, 0% plasma). The source says:
(§1) The anti-HIV activity of the compound of the invention can be determined in MT4 cells according to the following procedure. MT4 cells were infected with cell-free supernatant of HIVIIIB (previously frozen with known 50% tissue culture infectious dose (TCID50) at 0.003 multiplicity of infection (MOI) for one hour. After one hour infection, cells were washed twice to remove residual viruses, resuspended in culture media and seeded into 96-well tissue culture plates at 1x10^4 cells per well with various half-log dilutions of compounds. Uninfected cells are included as toxicity and cell controls. RPMI 1640 media (Gibco ) with 10% fetal bovine serum were used as culture media. Various concentrations of human serum (Sigma) 50%, 25% and 12.5% were added to culture media resulting in final concentration of 60%, 35% and 22.5% total serum. All assay plates were incubated in 37 deg. cent. incubator for 5 days. MTT (sigma, 5 mg/ml stock in PBS) was added to all wells at 25 ul per well, incubate for 4 hours. 20%SDS with 0.02 N HCl in water was added at 50 ul per well to lyse cellls. Plates incubated overnight for complete lyses were read on a microtitre plate reader at 570/650 nm wavelengths to determine cell optical density (O.D.). Raw data were analysed for percent inhibition by the following formula: (O.D. test well - O.D. virus control)/(O.D. cell control -O.D. virus control)x100 [formula] The 50% effective concentration (EC50) was calculated by the median effect equation (Chou, 1975,Proc. Int. Cong. Pharmacol. 6th p. 619) to determine the efficacy of compound. The 50% lethal concentration (LC50) was calculated using uninfected MT4 cells.
(§2) Under these conditions, the following data were obtained (n = 4 duplicate determinations: Table 2

The target in another data set is T1, HIV protease (Human immunodeficiency virus type 1 group M subtype B, UniProt P04585).
T1 construct: HIV protease consists of two identical subunits, each of which has 99 amino acid residues
Nature of the data set: Fluorogenic Assay for Screening Inhibitors of HIV Protease. In kind it is biochemical. The following applies: Inhibitor Concentration 0.5 nanomolar; read-out: Percent Inhibition. The procedure: The inhibitory potency of the compound of the invention can be determined by the following method.
The compound of the invention is dissolved in DMSO and a small aliquot further diluted with DMSO to 100 times the final concentration desired for testing. The reaction is carried out in a 6 X 50 mm tube in a total volume of 300 microliters. The final concentrations of the components in the reaction buffer are: 125 mM sodium acetate, 1 M sodium chloride, 5 mM dithiothreitol, 0.5 mg/ml bovine serum albumin, 1.3 µM fluorogenic substrate, 2% (v/v) dimethylsulfoxide, pH 4.5. After addition of inhibitor, the reaction mixture is placed in the fluorometer cell holder and incubated at 30°C for several minutes. The reaction is initiated by the addition of a small aliquot of cold HIV protease. The fluorescence intensity (excitation 340 nm, emmision 490 nM) is recorded as a function of time. The reaction rate is determined for the first six to eight minutes. The observed rate is directly proportional to the moles of substrate cleaved per unit time. The percent inhibition is 100 X (1 - (rate in presence of inhibitor)/(rate in absence of inhibitor)).
Fluorogenic substrate: Dabcyl-Gaba-Ser-Gln-Asn-Tyr-Pro-lle-Val-Gln-EDANS wherein DABCYL = 4-(4-dimethylamino-phenyl)azobenzoic acid, Gaba = γ-aminobutyric acid, and EDANS = 5-((2-aminoethyl)amino)-naphthalene-1-sulfonic acid.

The nature of data set [2]: 50% lethal concentration in uninfected MT4 cells (MTT). The class given is cell-based. The following applies: human, read-out: LC50.
From the text: as §1, §2

Setting [3] is: Human immunodeficiency virus 1, NL43, Virus NL4-3.
Setting [4] is: Human immunodeficiency virus 1, Virus P7.
The mark [5] stands for this setting: Human immunodeficiency virus 1, Virus P11.
Where [6] appears, read: Human immunodeficiency virus 1, Virus P14.
The mark [7] stands for this setting: Human immunodeficiency virus 1, Virus P17.

With `CC(C)(C)NC(=O)[C@@H]1C[C@@H]2CCCC[C@@H]2CN1C[C@@H](O)[C@H](Cc1ccccc1)NC(=O)[C@H](CC(N)=O)NC(=O)c1ccc2ccccc2n1` [Saquinavir, N-tert-butyl-decahydro-2-[2(R)-hydroxy-4-phenyl-3(S)-[[N-(2-quinolylcarbonyl)-L-asparaginyl]amino]butyl]-(4aS,8aS)-isoquinoline-3(S)-carboxamide], the 50% effective concentration (EC50) in data set [1] (setting [3]) is 20 nM; in data set [1] (setting [4]), 33 nM; in data set [1] (setting [5]) it was 58 nM; in data set [1] (setting [6]), 48 nM; in data set [1] (setting [7]), 82 nM. Moreover, the “fold change in EC50” value in data set [1] (all of the passaged virus (P7, P11, P14, P17)) is at most 4 fold.
For the compound `Cc1cccc(C)c1OCC(=O)N[C@@H](Cc1ccccc1)[C@@H](O)C[C@H](Cc1ccccc1)NC(=O)[C@@H](N1CCNC1=O)C(C)(C)C` [Example 8], in the data set with HIVIIIB, the IC50 came to 0.019 µM. The inhibition at 0.0005 µM at HIV protease was determined as 55.6%. The CC50 at 120 h in data set [2] worked out at 17.8 µM.
The corresponding values for `Cc1cccc(C)c1/C=C/C(=O)N[C@@H](Cc1ccccc1)[C@@H](O)C[C@H](Cc1ccccc1)NC(=O)[C@H](C(C)C)N1CCCNC1=O` [Example 19E] are 0.395 µM, 68.5% and 17.9 µM.
The corresponding values for `Cc1cccc(C)c1OCC(=O)N[C@@H](Cc1ccccc1)[C@@H](O)C[C@H](Cc1ccccc1)NC(=O)[C@H](C(C)C)N1C(=O)CCC1=O` [Example 18C, (2S,3S,5S)-2-(2,6-Dimethylphenoxyacetyl) amino-3-hydroxy-5-(2S-(1-pyrrolidin-2,5-dionyl)-3-methyl-butanoyl) amino-1,6-diphenylhexane] are 0.329 µM, 57.8% and 19.1 µM.
As for `CC(C)(C)NC(=O)[C@@H]1CN(Cc2cccnc2)CCN1C[C@@H](O)C[C@@H](Cc1ccccc1)C(=O)N[C@H]1c2ccccc2C[C@H]1O` [Indinavir, N-(2(R)-hydroxy-1 (S)-indanyl)-2(R)-phenylmethyl-4(S)-hydroxy-5-(1-(4-(3-pyridylmethyl)-2(S)-N'-(t-butylcarboxamido)-piperazinyl))-pentaneamide], the EC50 in data set [1] (setting [3]) was determined as 67 nM; in data set [1] (setting [4]), 113 nM; in data set [1] (setting [5]), 153 nM; in data set [1] (setting [6]) it was 425 nM; in data set [1] (setting [7]) it was 1360 nM. The “resistance (fold)” value in data set [1] (P17 virus) turned out to be 20 fold.
As to `Cc1cccc(C)c1OCC(=O)N[C@@H](Cc1ccccc1)[C@@H](O)C[C@H](Cc1ccccc1)NC(=O)[C@H](C(C)C)N1CCNC(=O)C1=O` [Example 29C, (2S,3S,5S)-2-(2,6-Dimethylphenoxyacetyl)amino-3-hydroxy-5-[2S-(1-piperazin-2,3-dionyl)-3-methylbutanoyl]amino-1,6-diphenylhexane], the IC50 with HIVIIIB worked out at 0.427 µM. Also, the inhibition at 0.0005 µM at HIV protease was determined as 72.6%. Besides, in data set [2], the CC50 at 120 h stood at 56 µM.
The corresponding values for `Cc1cc(F)cc(C)c1OCC(=O)N[C@@H](Cc1ccccc1)[C@@H](O)C[C@H](Cc1ccccc1)NC(=O)[C@H](C(C)C)N1CCNC1=O` [Example 12B, (2S,3S,5S)-2-(4-Fluoro-2,6-dimethylphenoxyacetyl) amino-3-hydroxy-5-(2S-(1-imidazolidin-2-onyl)-3-methyl-butanoyl) amino-1,6-diphenylhexane] are 0.093 µM, 76.8% and 19.1 µM.
The corresponding values for `Cc1cccc(C)c1OCC(=O)N[C@@H](Cc1ccccc1)[C@@H](O)C[C@H](Cc1ccccc1)NC(=O)[C@H](C(C)C)N1CCC(=O)NC1=O` [Example 25E, (2S,3S,5S)-2-(2,6-Dimethylphenoxyacetyl) amino-3-hydroxy-5-[2S-(1-tetrahydro-pyrimid-2,4-dionyl)-3-methylbutanoyl]amino-1,6-diphenylhexane] are 0.012 µM, 100% and 22.9 µM.
With `Cc1cccc(C)c1OCC(=O)N[C@@H](Cc1ccccc1)[C@@H](O)C[C@H](Cc1ccccc1)NC(=O)[C@H](C(C)C)N1CCNC1=S` [Example 9B, (2S,3S,5S)-2-(2,6-Dimethylphenoxyacetyl)amino-3-hydroxy-5-(2S-(1-imidazolidin-2-thionyl)-3-methylbutanoyl)amino-1,6-diphenylhexane], in the data set with HIVIIIB, the IC50 worked out at 0.272 µM. In addition, on HIV protease, the inhibition at 0.0005 µM came out at 62.6%. In data set [2], the CC50 at 120 h was 19.3 µM.
With `CC(C)(C)[C@@H](C(=O)N[C@@H](Cc1ccccc1)C[C@H](O)[C@H](Cc1ccccc1)NC(=O)OCc1cncs1)N1CCNC1=O` [Example 7B, (2S,3S,5S)-2-(N-((5-Thiazolyl)-methoxycarbonyl)amino)-3-hydroxy-5-(2S-(1-imidazolidin-2-onyl)-3,3-dimethylbutanoyl)amino-1,6-diphenylhexane], the IC50 with HIVIIIB was 0.204 µM. Besides, the inhibition at 0.0005 µM on HIV protease stood at 67.1%. Further, the CC50 at 120 h in data set [2] was over 100 µM.
Turning to `Cc1ccnc(C)c1OCC(=O)N[C@@H](Cc1ccccc1)[C@@H](O)C[C@H](Cc1ccccc1)NC(=O)[C@H](C(C)C)N1CCNC1=O` [Example 15, (2S,3S,5S)-2-(2,4-Dimethyl-pyridin-3-oxy-acetyl) amino-3-hydroxy-5-(2S-(1-imidazolidin-2-onyl)-3-methyl-butanoyl) amino-1,6-diphenylhexane], in the data set on HIVIIIB, the IC50 is 0.119 µM. Also, the inhibition at 0.0005 µM on HIV protease turned out to be 48%. Also, the CC50 at 120 h in data set [2] was over 100 µM.
The matching figures for `Cc1cc(N)cc(C)c1OCC(=O)N[C@@H](Cc1ccccc1)[C@@H](O)C[C@H](Cc1ccccc1)NC(=O)[C@H](C(C)C)N1CCNC1=O` [Example 10F, (2S,3S,5S)-2-(4-Amino-2,6-dimethylphenoxyacetyl) amino-3-hydroxy-5-(2S-(1-imidazolidin-2-onyl)-3-methyl-butanoyl) amino-1,6-diphenylhexane]: 0.047 µM, 81% and 92 µM.
